Values quoted from earlier work, collected in PMC8131289, “Direct Comparison of the Prediction of the Unbound Brain-to-Plasma Partitioning Utilizing Machine Learning Approach and Mechanistic Neuropharmacokinetic Model” (The AAPS Journal, 2021).
Read-outs that look alike come from different tables or passages of the source.

Legend:
[1] = target: T1, BCRP (Homo sapiens, UniProt Q9UNQ0)
T1 sequence (Q9UNQ0 1-655): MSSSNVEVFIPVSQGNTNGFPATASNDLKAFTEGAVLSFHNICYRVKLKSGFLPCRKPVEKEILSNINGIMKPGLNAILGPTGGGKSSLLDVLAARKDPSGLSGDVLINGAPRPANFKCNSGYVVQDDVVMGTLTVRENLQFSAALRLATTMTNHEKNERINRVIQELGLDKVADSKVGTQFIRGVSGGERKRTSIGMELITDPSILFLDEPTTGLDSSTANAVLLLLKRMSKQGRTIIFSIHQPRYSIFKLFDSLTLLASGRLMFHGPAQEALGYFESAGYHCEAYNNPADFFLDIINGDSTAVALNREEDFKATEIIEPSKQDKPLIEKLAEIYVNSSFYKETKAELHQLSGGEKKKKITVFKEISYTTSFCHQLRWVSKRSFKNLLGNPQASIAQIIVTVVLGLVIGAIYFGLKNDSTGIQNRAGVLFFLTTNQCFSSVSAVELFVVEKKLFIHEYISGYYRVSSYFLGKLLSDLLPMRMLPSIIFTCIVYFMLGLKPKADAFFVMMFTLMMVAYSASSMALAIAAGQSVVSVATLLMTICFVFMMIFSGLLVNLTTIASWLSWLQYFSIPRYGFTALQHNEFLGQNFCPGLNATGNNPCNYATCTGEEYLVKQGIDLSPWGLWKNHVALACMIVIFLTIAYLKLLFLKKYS

[2] = target: MDR1 (Homo sapiens, UniProt P08183)
Chain of MDR1 (P08183 whole entry): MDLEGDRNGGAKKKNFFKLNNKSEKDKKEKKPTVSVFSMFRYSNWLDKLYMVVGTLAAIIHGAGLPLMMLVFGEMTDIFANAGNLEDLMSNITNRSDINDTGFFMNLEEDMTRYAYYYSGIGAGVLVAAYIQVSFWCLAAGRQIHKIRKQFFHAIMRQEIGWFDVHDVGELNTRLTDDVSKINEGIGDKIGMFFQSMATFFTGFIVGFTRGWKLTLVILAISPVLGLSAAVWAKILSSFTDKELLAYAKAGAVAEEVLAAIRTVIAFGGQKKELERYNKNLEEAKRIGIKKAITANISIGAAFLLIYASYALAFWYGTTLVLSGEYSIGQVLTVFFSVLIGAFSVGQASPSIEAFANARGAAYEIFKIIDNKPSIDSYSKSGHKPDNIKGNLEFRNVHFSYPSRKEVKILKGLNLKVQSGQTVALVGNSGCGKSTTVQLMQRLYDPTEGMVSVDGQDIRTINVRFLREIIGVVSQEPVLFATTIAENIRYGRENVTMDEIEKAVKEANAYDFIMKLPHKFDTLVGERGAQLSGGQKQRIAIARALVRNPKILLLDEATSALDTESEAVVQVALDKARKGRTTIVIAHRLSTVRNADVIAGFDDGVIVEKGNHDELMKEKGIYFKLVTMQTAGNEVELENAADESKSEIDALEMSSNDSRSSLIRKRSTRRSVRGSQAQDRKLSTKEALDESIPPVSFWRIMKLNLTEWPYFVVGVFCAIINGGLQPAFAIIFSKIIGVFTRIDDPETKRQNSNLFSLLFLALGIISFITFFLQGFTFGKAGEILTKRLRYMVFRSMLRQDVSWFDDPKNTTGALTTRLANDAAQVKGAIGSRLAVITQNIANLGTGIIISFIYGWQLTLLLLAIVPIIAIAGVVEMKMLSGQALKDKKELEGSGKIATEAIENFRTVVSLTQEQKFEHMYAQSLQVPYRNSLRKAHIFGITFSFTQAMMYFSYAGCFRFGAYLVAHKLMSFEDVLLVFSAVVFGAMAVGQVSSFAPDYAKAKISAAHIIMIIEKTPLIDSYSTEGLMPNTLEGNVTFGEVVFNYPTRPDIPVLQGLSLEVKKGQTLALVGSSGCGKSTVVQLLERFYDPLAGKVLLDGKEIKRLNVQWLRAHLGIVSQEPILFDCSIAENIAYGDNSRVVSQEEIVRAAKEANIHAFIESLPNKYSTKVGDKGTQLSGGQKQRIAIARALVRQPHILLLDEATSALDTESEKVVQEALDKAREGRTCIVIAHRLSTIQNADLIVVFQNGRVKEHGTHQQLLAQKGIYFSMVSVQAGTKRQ

[3] = external dataset
[4] = MDCK-BCRP cells, external dataset, ref (17)
[5] = MDCK-MDR1 cells, external dataset, ref (17)

Row | Efflux ratio BCRP [1, 4] | Efflux ratio MDR1 [2, 5] | Kp,uu,brain ([3]; ref (30)) | Compound | other results
1 |  |  |  | Cc1cc(=O)n(-c2ccccc2)n1C [Antipyrine] | Efflux ratio BCRP [1]: 0.96; Efflux ratio MDR1 ([2]; MDCK-MDR1): 0.91
2 | 0.88 | 1.26 | 0.389 | NC(=O)N1c2ccccc2C=Cc2ccccc21 [Carbamazepine] | 
3 |  |  |  | C#Cc1cccc(Nc2ncnc3cc(OCCOC)c(OCCOC)cc23)c1 [Erlotinib] | Kp,uu,brain ([3]; ref (17)): 0.0614
4 |  |  | 2.14 | CNCCC(Oc1ccc(C(F)(F)F)cc1)c1ccccc1 (centres unmarked) [Fluoxetine] | 
5 | 20 | 4.4 |  | COc1ccc2c(c1)c(CC(=O)O)c(C)n2C(=O)c1ccc(Cl)cc1 [Indomethacin] | 
6 |  | 1.42 |  | CN(Cc1cnc2nc(N)nc(N)c2n1)c1ccc(C(=O)N[C@@H](CCC(=O)O)C(=O)O)cc1 [Methotrexate] | 
7 |  |  | 1.61 | CN1CCN2c3ncccc3Cc3ccccc3C2C1 (centres unmarked) [Mirtazapine] | 
8 |  | 5.4 |  | CC(C)NCC(O)COc1cccc2[nH]ccc12 (centres unmarked) [Pindolol] | 
9 |  | 0.46 |  | CN[C@H]1CC[C@@H](c2ccc(Cl)c(Cl)c2)c2ccccc21 [Sertraline] | 
10 | 0.57 | 2.6 | 1.43 | CSc1ccc2c(c1)N(CCC1CCCCN1C)c1ccccc1S2 (centres unmarked) [Thioridazine] | 
11 |  |  | 1.07 | COc1ccc(C(CN(C)C)C2(O)CCCCC2)cc1 (centres unmarked) [Venlafaxine] | 

Row | Compound | Efflux ratio BCRP [1, 4] | Efflux ratio MDR1 [2, 5] | Kp,uu,brain ([3]; ref (30)) | other results
12 | CC(NC(C)(C)C)C(=O)c1cccc(Cl)c1 (centres unmarked) [Bupropion] | 0.80 | 1.2 |  | 
13 | CN(C)C(=O)C(CCN1CCC(O)(c2ccc(Cl)cc2)CC1)(c1ccccc1)c1ccccc1 [Loperamide] |  |  | 0.0244 | 
